Measured values as given in US4350754A, “Blocked development restrainers” (Polaroid Corporation, priority 1981, dated 1982).

Test: Release kinetics in solution: t1/2, time for one half of the molecule to cleave and release the azole moiety
Format: physicochemical
From the text: The release kinetics in solution of the compounds of the invention vary over a wide range.
*rate of hydrolysis approximates rate of release
**measured in 50% ethanol/water solution
***solution was 0.022N in KOH

[1] = 1×10^-4 molar in 30% acetonitrile/0.25 N aqueous KOH, 22°±0.1° C., release of azole moiety

t1/2 [1] [s]	SMILES	also measured
–	Cc1ccc(Nc2nnc([Se]Cc3c[nH]c(=O)[nH]c3=O)[se]2)cc1 [Compound XIX]	t1/2 (measured in 50% ethanol/water solution, 22° C.): 48.8 s
4.0	Cn1c(=O)[nH]cc(CSc2nnnn2-c2ccc(O)cc2)c1=O [Compound XI]	–
35.9	O=c1[nH]cc(CSc2ncccn2)c(=O)[nH]1 [Compound XVIII]	–
77.8	O=c1[nH]cc(CSc2ncnc3[nH]cnc23)c(=O)[nH]1 [Compound XVII]	–
0.87	CC(=NO)c1ccc(-n2nnnc2SCc2c[nH]c(=O)n(C)c2=O)cc1 [Compound XXVI]	–
911	CC(=O)n1c(=O)[nH]cc(Cn2nnn(-c3ccccc3)c2=S)c1=O [Compound XXXI]	–
–	CC(=O)Oc1ccc(-n2nnnc2SCc2c[nH]c(=O)[nH]c2=O)cc1 [Compound XX]	t1/2 (hydrolysis) (hydrolysis, 30% acetonitrile/0.25 N aqueous KOH, 22° C.): 2.5 s
1080	O=c1[nH]cc(Cn2nc(-c3ccccc3)oc2=S)c(=O)[nH]1 [Compound X]	–
0.81	Cn1c(=O)[nH]cc(CSc2nnnn2-c2ccccc2)c1=O [II]	–
–	CC(=O)Oc1ccc(-n2nnnc2SCc2c[nH]c(=O)n(C)c2=O)cc1 [V]	t1/2 (30% acetonitrile/0.25 N aqueous KOH, 22° C., rate of hydrolysis approximates rate of release): 1.8 to 4.0 s
31.2	O=C(c1ccccc1)n1c(=O)[nH]cc(CSc2nnnn2-c2ccccc2)c1=O [XII]	–
4320	O=c1[nH]cc(Cn2nc(-c3cccs3)oc2=S)c(=O)[nH]1 [XIV]	–

SMILES	t1/2 [1] [s]	also measured
Cn1c(=O)[nH]cc(Cn2nnn(-c3ccccc3)c2=S)c1=O [VIII]	1512	–
O=c1[nH]cc(Cn2nnn(-c3ccccc3)c2=S)c(=O)[nH]1 [VII]	900	–
